From US10023577B2, “Crystalline form of JAK kinase inhibitor bisulfate and a preparation method thereof” (Jiangsu Hengrui Medicine Co., Ltd., priority 2014, dated 2018) come the findings set out here.

Entries after “also recorded” stand apart in the source; their conditions may differ.

Data set [1] in a line: Stability of samples spread flat in the air under lighting, heating and high humidity, purity by HPLC. Format: physicochemical. On the procedure: Crystal form II prepared in Example 1 and the amorphous sample prepared in Example 2 were spread flat in the air to test their stability in conditions of lighting (4500 Lux), heating (40° C., 60′C.), and high humidity (RH 75%, RH 90%).

A short description of data set [2]: Special stability study: grinding, heating and pressing of the crystal form. Format: physicochemical. From the text: Crystal form II of the compound of formula (I) prepared according to the method of Example 1 was ground, heated and pressed.

Turning to `COc1nsc(NC(=O)N2C[C@H]3C[C@H](N(C)c4ncnc5[nH]ccc45)C[C@H]3C2)n1` [Crystal form II, (3aR,5s,6aS)—N-(3-methoxyl-1,2,4-thiadiazole-5-yl)-5-(methyl(7H-pyrrolo[2,3-d]pyrimidine-4-yl)amino)hexahydrocyclopenta[c]pyrrole-2(1H)-formamide bisulfate], the “purity as detected by HPLC” value is 99.30% in data set [1] (40° C., Day 0); 99.30% in data set [1] (40° C., Day 5); 99.28% in data set [1] (40° C., Day 10); 99.30% in data set [1] (60° C., Day 0); 99.20% in data set [1] (60° C., Day 5); 99.15% in data set [1] (60° C., Day 10). Moreover, the “purity as detected by HPLC” value turned out to be 99.30% in data set [1] (Lighting (4500 Lux), Day 0); 99.29% in data set [1] (Lighting (4500 Lux), Day 5); 99.30% in data set [1] (Lighting (4500 Lux), Day 10); 99.30% in data set [1] (RH 75%, Day 0); 99.31% in data set [1] (RH 75%, Day 5); 99.28% in data set [1] (RH 75%, Day 10). In addition, the “purity as detected by HPLC” value in data set [1] (RH 90%, Day 0) was 99.30%; in data set [1] (RH 90%, Day 5), 99.31%; in data set [1] (RH 90%, Day 10), 99.31%. The “stability compared with the amorphous sample” value in data set [1] (conditions of high temperature and high humidity) is on record as “significantly better than that of the amorphous sample”; in data set [1] (conditions of lighting and high temperature) it was “significantly better than that of the amorphous sample”. Moreover, in data set [1], the “effect of high humidity on stability” value was “does not have much effect”. Also, the “Crystal form after treatment” value is listed as “form II” in data set [2] (Grinding treatment for 10 minutes in a mortar under nitrogen atmosphere); “form II” in data set [2] (Heating treatment at 80° C. for 3 hours); “form II” in data set [2] (Pressing treatment, pressed to a slice). Besides, in data set [2] (ground, heated and pressed), the “stability of the crystal form” value is recorded as “good stability; also recorded: stable”.
For the compound `COc1nsc(NC(=O)N2C[C@H]3C[C@H](N(C)c4ncnc5[nH]ccc45)C[C@H]3C2)n1` [Amorphous Form, (3aR,5s,6aS)—N-(3-methoxyl-1,2,4-thiadiazole-5-yl)-5-(methyl(7H-pyrrolo[2,3-d]pyrimidine-4-yl)amino)hexahydrocyclopenta[c]pyrrole-2(1H)-formamide bisulfate], the “purity as detected by HPLC” value in data set [1] (40° C., Day 0) worked out at 98.33%; in data set [1] (40° C., Day 5), 97.65%; in data set [1] (40° C., Day 10), 96.61%; in data set [1] (60° C., Day 0), 98.33%; in data set [1] (60° C., Day 5), 94.53%; in data set [1] (60° C., Day 10) it was 92.12%. Further, the “purity as detected by HPLC” value in data set [1] (Lighting (4500 Lux), Day 0) is recorded as 98.33%; in data set [1] (Lighting (4500 Lux), Day 5), 98.04%; in data set [1] (Lighting (4500 Lux), Day 10), 97.51%; in data set [1] (RH 75%, Day 0) it was 98.33%; in data set [1] (RH 75%, Day 5), 98.32%; in data set [1] (RH 75%, Day 10), 98.16%. Further, the “purity as detected by HPLC” value in data set [1] (RH 90%, Day 0) is given as 98.33%; in data set [1] (RH 90%, Day 5), 99.14%; in data set [1] (RH 90%, Day 10) it was 99.12%. Further, in data set [1], the “effect of high humidity on stability” value is “does not have much effect”.
